According to patent publication US20240150377A1, “MODULATORS OF CYSTIC FIBROSIS TRANSMEMBRANE CONDUCTANCE REGULATOR” (VERTEX PHARMACEUTICALS INCORPORATED, priority 2020, published 2024):
pEC50: −log10 of the molar value. Where two headings read alike, the source gives them in different places. One block for each compound: values may come before it.

Key:
[1] = amide bond, 13-membered ring, DMF
CFTR [2] = target: CFTR (Homo sapiens, UniProt P13569); assay: Membrane potential dye, Enteroid Assay A; type: cell-based; conditions: for Ent. A Max Activity: chloride transport as % of triple combination control (Enteroid Assay A); for pEC50: human enteroid cells, 18-24 hours, acute 10 μM forskolin and 300 nM ivacaftor, read-out: Ent. A EC50
Outline: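 % Activity: chloride transport relative to a 3 μM/3 μM corrector pair plus 300 nM acute potentiator control. Primary human enteroid cells, 18-24 h compound exposure at 37 °C; membrane potential dye (methyl oxonol) fluorescence over 15 min after forskolin (10 μM)/IBMX (100 μM)/Compound III (300 nM) stimulation in chloride-free buffer.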

CFTR [3] = target: T1, CFTR (Homo sapiens, UniProt P13569, DEL508-508); assay: HBE2 assay: Ussing chamber assay of CFTR-mediated short-circuit currents; type: cell-based; conditions: F508del/MF-HBE cells, with 44 nM potentiator, 18-24 hours, 20% human serum; for Emax: read-out: HBE2 Max activity (%)
T1 construct: endogenous in cells; host or cells: primary human bronchial epithelial cells from CF subjects (F508del/MF-HBE), differentiated at air-liquid interface
Outline: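 Corrector activity read as CFTR-dependent ISC (μA/cm^2): peak forskolin current minus post-inhibitor steady state. Measured at 37 °C, voltage clamp at 0 mV, on F508del/MF-HBE epithelia grown >14 days air-liquid interface in Ussing chambers.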

CFTR [4] = target: T1, CFTR; assay: HBE assay: Ussing chamber assay of CFTR-mediated short-circuit currents; type: cell-based; conditions: HBE assay; 10 μM; read-out: HBE Activity at 10 μM (%)
Outline: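 CFTR-mediated Isc (μA/cm²) equals the peak response to apical 20 μM forskolin minus the residual after a 20 μM each BPO/GlyH-101/CFTR inhibitor 172 cocktail, recorded in Ussing chambers at Vhold 0 mV, 37 °C, pH 7.4, with 30 μM apical amiloride. Cells were F508del/MF HBE cultures preincubated 18-24 h with corrector (concentration range or 10 μM) plus 1 μM ivacaftor in 20% human serum.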

T1 sequence (P13569 with tags, fused parts or gaps DEL508-508): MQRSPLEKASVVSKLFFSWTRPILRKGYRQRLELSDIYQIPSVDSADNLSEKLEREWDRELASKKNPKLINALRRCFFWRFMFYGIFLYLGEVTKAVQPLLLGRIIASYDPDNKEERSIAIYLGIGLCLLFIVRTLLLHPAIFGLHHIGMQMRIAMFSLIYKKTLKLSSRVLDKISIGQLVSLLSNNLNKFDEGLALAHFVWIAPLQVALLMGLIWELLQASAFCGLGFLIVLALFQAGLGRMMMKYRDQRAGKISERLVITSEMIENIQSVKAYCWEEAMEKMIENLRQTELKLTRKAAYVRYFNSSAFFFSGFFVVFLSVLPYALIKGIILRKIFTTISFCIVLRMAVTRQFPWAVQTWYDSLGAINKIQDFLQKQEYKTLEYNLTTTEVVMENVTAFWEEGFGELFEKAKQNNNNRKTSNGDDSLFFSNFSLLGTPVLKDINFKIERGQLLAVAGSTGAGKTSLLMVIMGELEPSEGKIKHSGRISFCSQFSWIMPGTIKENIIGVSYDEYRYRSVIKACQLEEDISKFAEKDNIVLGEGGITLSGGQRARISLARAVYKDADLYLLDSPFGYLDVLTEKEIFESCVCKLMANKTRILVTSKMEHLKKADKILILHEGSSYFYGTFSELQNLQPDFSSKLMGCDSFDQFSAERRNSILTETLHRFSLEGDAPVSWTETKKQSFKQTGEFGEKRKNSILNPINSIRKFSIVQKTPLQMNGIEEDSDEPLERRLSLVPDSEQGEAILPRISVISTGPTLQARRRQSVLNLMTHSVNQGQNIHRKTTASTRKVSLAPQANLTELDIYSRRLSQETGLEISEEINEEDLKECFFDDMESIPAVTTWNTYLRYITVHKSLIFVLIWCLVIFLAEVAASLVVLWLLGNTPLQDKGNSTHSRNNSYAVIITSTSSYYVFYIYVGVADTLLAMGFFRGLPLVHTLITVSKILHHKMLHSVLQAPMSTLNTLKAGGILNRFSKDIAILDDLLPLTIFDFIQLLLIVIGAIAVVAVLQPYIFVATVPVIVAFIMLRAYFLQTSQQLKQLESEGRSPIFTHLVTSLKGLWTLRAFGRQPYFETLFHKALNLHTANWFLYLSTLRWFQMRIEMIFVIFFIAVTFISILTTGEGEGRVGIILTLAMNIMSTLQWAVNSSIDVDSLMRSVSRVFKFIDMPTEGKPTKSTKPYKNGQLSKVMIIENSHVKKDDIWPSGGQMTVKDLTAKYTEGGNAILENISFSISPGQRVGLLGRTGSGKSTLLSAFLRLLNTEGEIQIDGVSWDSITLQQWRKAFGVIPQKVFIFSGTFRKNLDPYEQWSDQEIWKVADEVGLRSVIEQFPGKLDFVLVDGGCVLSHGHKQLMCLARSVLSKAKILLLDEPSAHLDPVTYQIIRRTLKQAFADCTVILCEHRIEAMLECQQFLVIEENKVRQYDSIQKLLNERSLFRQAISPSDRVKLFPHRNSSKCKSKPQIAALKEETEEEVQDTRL
Sequence of CFTR (Homo sapiens, UniProt P13569) (P13569 with tags, fused parts or gaps DEL508-508): as above

SMILES: Cc1cccc(C)c1-c1cc2nc(n1)NS(=O)(=O)c1cccc(c1)C(=O)N(C)CC(c1ccc(C(C)(C)C)cc1)O2 (racemic) [Compound 10, 10-(4-tert-butylphenyl)-6-(2,6-dimethylphenyl)-12-methyl-2,2-dioxo-9-oxa-2λ^6-thia-3,5,12,19-tetrazatricyclo[12.3.1.14,8]nonadeca-1(18),4(19),5,7,14,16-hexaen-13-one]
ring closure, yield after HPLC ([1]; from CNCC(Oc1cc(-c2c(C)cccc2C)nc(NS(=O)(=O)c2cccc(C(=O)O)c2)n1)c1ccc(C(C)(C)C)cc1, HATU/DIEA, 15.4 mM, 25.0 °C, 0.25 h, 2 steps): 19% | Ent. A Max Activity (CFTR [2]; Table 6): +++ (+++ is >60%) | pEC50 (CFTR [2]; Table 6): > 6.00

SMILES: Cc1cccc(C)c1-c1cc2nc(n1)NS(=O)(=O)c1cccc(c1)C(=O)N(C)CC(c1cccc(C(C)(C)C)c1)O2 (racemic) [Compound 16, 10-(3-tert-butylphenyl)-6-(2,6-dimethylphenyl)-12-methyl-2,2-dioxo-9-oxa-2λ^6-thia-3,5,12,19-tetrazatricyclo[12.3.1.14,8]nonadeca-1(18),4(19),5,7,14,16-hexaen-13-one]
ring closure, yield after HPLC ([1]; from CNCC(Oc1cc(-c2c(C)cccc2C)nc(NS(=O)(=O)c2cccc(C(=O)O)c2)n1)c1cccc(C(C)(C)C)c1, HATU/DIEA, 32.6 mM, 25.0 °C, 1.0 h, 2 steps): 51% | Ent. A Max Activity (CFTR [2]; Table 7): ++ (++ is 30-60%) | pEC50 (CFTR [2]; Table 7): > 6.00

SMILES: Cc1cccc(C)c1-c1cc2nc(n1)NS(=O)(=O)c1cccc(c1)C(=O)N(CCC(C)(C)C)CC(c1ccc(C(C)(C)C)cc1)O2 (centres unmarked) [Compound 14, 10-(4-tert-butylphenyl)-12-(3,3-dimethylbutyl)-6-(2,6-dimethylphenyl)-2,2-dioxo-9-oxa-2λ^6-thia-3,5,12,19-tetrazatricyclo[12.3.1.14,8]nonadeca-1(18),4(19),5,7,14,16-hexaen-13-one]
ring closure, yield after HPLC ([1]; from Cc1cccc(C)c1-c1cc(OC(CNCCC(C)(C)C)c2ccc(C(C)(C)C)cc2)nc(NS(=O)(=O)c2cccc(C(=O)O)c2)n1, HATU/TEA, 0.42 h, 2 steps): 6% | Ent. A Max Activity (CFTR [2]; Table 6): ++ (++ is 30-60%) | pEC50 (CFTR [2]; Table 6): > 6.00

SMILES: Cc1cccc(C)c1-c1cc2nc(n1)NS(=O)(=O)c1cccc(c1)C(=O)N(CCC1CCOCC1)C(CCC1(C(F)(F)F)CC1)CO2 (centres unmarked) [Compound 74, 6-(2,6-dimethylphenyl)-2,2-dioxo-12-(2-tetrahydropyran-4-ylethyl)-11-[2-[1-(trifluoromethyl)cyclopropyl]ethyl]-9-oxa-2λ^6-thia-3,5,12,19-tetrazatricyclo[12.3.1.14,8]nonadeca-1(18),4(19),5,7,14,16-hexaen-13-one]
ring closure, yield after HPLC ([1]; from Cc1cccc(C)c1-c1cc(OCC(CCC2(C(F)(F)F)CC2)NCCC2CCOCC2)nc(NS(=O)(=O)c2cccc(C(=O)O)c2)n1, HATU/DIEA, 24.1 mM, 16.0 h): 23% | Ent. A Max Activity (CFTR [2]; Table 6): +++ (+++ is >60%) | pEC50 (CFTR [2]; Table 6): > 6.00

SMILES: Cc1cccc(C)c1-c1cc2nc(n1)NS(=O)(=O)c1cccc(c1)C(=O)N(C)CC(c1ccc(C(C)(C)C)cn1)O2 (centres unmarked) [Compound 101, 10-(5-tert-butyl-2-pyridyl)-6-(2,6-dimethylphenyl)-12-methyl-2,2-dioxo-9-oxa-2λ^6-thia-3,5,12,19-tetrazatricyclo[12.3.1.14,8]nonadeca-1(18),4(19),5,7,14,16-hexaen-13-one]
ring closure, yield after HPLC ([1]; from CNCC(Oc1cc(-c2c(C)cccc2C)nc(NS(=O)(=O)c2cccc(C(=O)O)c2)n1)c1ccc(C(C)(C)C)cn1, HATU/DIEA, 10.5 mM, 25.0 °C, 0.083 h, 2 steps): 55% | Ent. A Max Activity (CFTR [2]; Table 6): +++ (+++ is >60%) | pEC50 (CFTR [2]; Table 6): > 6.00

Now from value to compound, other results behind:

Ent. A Max Activity (CFTR [2]; Table 7): +++ (+++ is >60%) | pEC50 (CFTR [2]; Table 7): > 6.00
SMILES: Cc1cccc(C)c1-c1cc2nc(n1)NS(=O)(=O)c1cccc(c1)C(=O)N(Cc1cn(C)nc1C(C)(C)C)[C@H](CC(C)C)CO2 [Compound 83, (11R)-12-[(3-tert-Butyl-1-methyl-pyrazol-4-yl)methyl]-6-(2,6-dimethylphenyl)-11-isobutyl-2,2-dioxo-9-oxa-2λ^6-thia-3,5,12,19-tetrazatricyclo[12.3.1.14,8]nonadeca-1(18),4(19),5,7,14,16-hexaen-13-one]
ring closure, yield after HPLC ([1]; from Cc1cccc(C)c1-c1cc(OC[C@@H](CC(C)C)NCc2cn(C)nc2C(C)(C)C)nc(NS(=O)(=O)c2cccc(C(=O)O)c2)n1, HATU/DIEA, 20.4 mM, 25.0 °C, 18.0 h): 32%

Ent. A Max Activity (CFTR [2]; Table 6): +++ (+++ is >60%) | pEC50 (CFTR [2]; Table 6): > 6.00
SMILES: Cc1cccc(C)c1-c1cc2nc(n1)NS(=O)(=O)c1cccc(c1)C(=O)N(CCC(C)(C)C)[C@H](CC(C)(C)C)CO2 [Compound 138, (11R)-12-(3,3-Dimethylbutyl)-6-(2,6-dimethylphenyl)-11-(2,2-dimethylpropyl)-2,2-dioxo-9-oxa-2λ^6-thia-3,5,12,19-tetrazatricyclo[12.3.1.14,8]nonadeca-1(18),4(19),5,7,14,16-hexaen-13-one]
ring closure, yield after HPLC ([1]; from Cc1cccc(C)c1-c1cc(OC[C@@H](CC(C)(C)C)NCCC(C)(C)C)nc(NS(=O)(=O)c2cccc(C(=O)O)c2)n1, HATU/DIEA, 8.4 mM, 2.0 h): 39%

HBE2 Activity at 3 μM (%) (CFTR [3]): +++ (+++ is >60+) | pEC50 (CFTR [3]): > 6.00 | Emax (CFTR [3]): > 60% | activation at 10 µM (CFTR [4]): > 60%
SMILES: Cc1cccc(C)c1-c1cc2nc(n1)NS(=O)(=O)c1cccc(c1)C(=O)N(Cc1ncc(OC(C)C)cn1)[C@H](CC1(C)CC1)CO2 [Compound 1306, (11R)-6-(2,6-Dimethylphenyl)-12-[(5-isopropoxypyrimidin-2-yl)methyl]-11-[(1-methylcyclopropyl)methyl]-2,2-dioxo-9-oxa-2λ^6-thia-3,5,12,19-tetrazatricyclo[12.3.1.14,8]nonadeca-1(18),4(19),5,7,14,16-hexaen-13-one]
ring closure, yield after HPLC ([1]; from Cc1cccc(C)c1-c1cc(OC[C@@H](CC2(C)CC2)NCc2ncc(OC(C)C)cn2)nc(NS(=O)(=O)c2cccc(C(=O)O)c2)n1, CDMT/NMM, 33.8 mM, 4.0 h): 53%

HBE2 Activity at 3 μM (%) (CFTR [3]): +++ (+++ is >60+) | activation at 10 µM (CFTR [4]): > 60%
SMILES: Cc1cccc(C)c1-c1cc2nc(n1)NS(=O)(=O)c1cccc(c1)C(=O)N(Cc1ncc(N3CC(C)(C)C3)cn1)[C@H](CC1(C)CC1)CO2 [Compound 1307, (11R)-12-[[5-(3,3-Dimethylazetidin-1-yl)pyrimidin-2-yl]methyl]-6-(2,6-dimethylphenyl)-11-[(1-methylcyclopropyl)methyl]-2,2-dioxo-9-oxa-2λ^6-thia-3,5,12,19-tetrazatricyclo[12.3.1.14,8]nonadeca-1(18),4(19),5,7,14,16-hexaen-13-one]
ring closure, yield after HPLC ([1]; from Cc1cccc(C)c1-c1cc(OC[C@@H](CC2(C)CC2)NCc2ncc(N3CC(C)(C)C3)cn2)nc(NS(=O)(=O)c2cccc(C(=O)O)c2)n1, CDMT/NMM, 24.2 mM, 3.0 h): 65%

HBE2 Activity at 3 μM (%) (CFTR [3]): +++ (+++ is >60+)
SMILES: Cc1cccc(C)c1-c1cc2nc(n1)NS(=O)(=O)c1cccc(c1)C(=O)N(Cc1ncc(OC(C)C)cn1)[C@H](CC1(C)CCC1)CO2 [Compound 1317, (11R)-6-(2,6-Dimethylphenyl)-12-[(5-isopropoxypyrimidin-2-yl)methyl]-11-[(1-methylcyclobutyl)methyl]-2,2-dioxo-9-oxa-2λ6-thia-3,5,12,19-tetrazatricyclo[12.3.1.14,8]nonadeca-1(18),4(19),5,7,14,16-hexaen-13-one]
ring closure, yield after HPLC ([1]; from Cc1cccc(C)c1-c1cc(OC[C@@H](CC2(C)CCC2)NCc2ncc(OC(C)C)cn2)nc(NS(=O)(=O)c2cccc(C(=O)O)c2)n1, CDMT/NMM, 12.9 mM, 22.0 h): 64%

HBE2 Activity at 3 μM (%) (CFTR [3]): +++ (+++ is >60+) | pEC50 (CFTR [3]): > 6.00 | Emax (CFTR [3]): > 60%
SMILES: Cc1cccc(C)c1-c1cc2nc(n1)NS(=O)(=O)c1cccc(c1)C(=O)N(Cc1cncc(N(C)C3CCC3)n1)[C@H](CCC(C)(C)C)CO2 [Compound 1319, (11R)-12-[[6-[Cyclobutyl(methyl)amino]pyrazin-2-yl]methyl]-11-(3,3-dimethylbutyl)-6-(2,6-dimethylphenyl)-2,2-dioxo-9-oxa-2λ^6-thia-3,5,12,19-tetrazatricyclo[12.3.1.14,8]nonadeca-1(18),4(19),5,7,14,16-hexaen-13-one]
ring closure, yield after HPLC ([1]; from Cc1cccc(C)c1-c1cc(OC[C@@H](CCC(C)(C)C)NCc2cncc(N(C)C3CCC3)n2)nc(NS(=O)(=O)c2cccc(C(=O)O)c2)n1, CDMT/NMM, 26.4 mM, 13.1 h): 44%
